What was measured:
Assay in all cases: relative viability (nuclei count vs DMSO), 5 days (fraction); higher = more cells survive
NCI-H1793 = tested on: NCI-H1793
In short: (§1)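 Relative viability was taken as the ratio of nuclei in treated wells to nuclei in vehicle wells. Lung cancer cell lines in 1536-well plates received compounds by pin tool one day after seeding, either one drug alone or a fixed anchor-drug dose plus five library-drug doses (not always all listed) in √10 steps. Nuclei were counted on 4× images after 5 days of treatment, and values are medians of duplicate plates.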

SW 900 = tested on: SW 900
In short: as §1

NCI-H727 = tested on: NCI-H727
In short: as §1

NCI-H23 = tested on: NCI-H23
In short: as §1

NCI-H2347 = tested on: NCI-H2347
In short: as §1

LC-2-ad = tested on: LC-2-ad
In short: as §1

201T = tested on: 201T
In short: as §1

SW 1573 = tested on: SW 1573
In short: as §1

NCI-H1563 = tested on: NCI-H1563
In short: as §1

LCLC-103H = tested on: LCLC-103H
In short: as §1

PC-3 [JPC-3] = tested on: PC-3 [JPC-3]
In short: as §1

NCI-H2228 = tested on: NCI-H2228
In short: as §1

NCI-H596 = tested on: NCI-H596
In short: as §1

LU99A = tested on: LU99A
In short: as §1

COR-L23 = tested on: COR-L23
In short: as §1

H3255 = tested on: H3255
In short: as §1

NCI-H1650 = tested on: NCI-H1650
In short: as §1

NCI-H460 = tested on: NCI-H460
In short: as §1

PC-14 = tested on: PC-14
In short: as §1

LCLC-97TM1 = tested on: LCLC-97TM1
In short: as §1

A-427 = tested on: A-427
In short: as §1

LK-2 = tested on: LK-2
In short: as §1

CCN(CC)CCCCNc1ncc2cc(-c3cc(OC)cc(OC)c3)c(NC(=O)NC(C)(C)C)nc2n1 + Cc1nc(Nc2ncc(C(=O)Nc3c(C)cccc3Cl)s2)cc(N2CCN(CCO)CC2)n1 [Dasatinib] (partner 0.075 µM)
relative viability (NCI-H1793; first compound 0.01 µM): 0.369
relative viability (NCI-H1793; first compound 0.03162 µM): 0.312
relative viability (NCI-H1793; first compound 0.1 µM): 0.372
relative viability (NCI-H1793; first compound 0.3162 µM): 0.283
relative viability (NCI-H1793; first compound 1 µM): 0.271
relative viability (SW 900; first compound 0.01 µM): 0.346
relative viability (SW 900; first compound 0.03162 µM): 0.673
relative viability (SW 900; first compound 0.3162 µM): 0.345
relative viability (SW 900; first compound 1 µM): 0.268
relative viability (NCI-H727; first compound 0.01 µM): 0.177
relative viability (NCI-H727; first compound 0.03162 µM): 0.424
relative viability (NCI-H727; first compound 0.1 µM): 0.385
relative viability (NCI-H727; first compound 0.3162 µM): 0.507
relative viability (NCI-H727; first compound 1 µM): 0.351
relative viability (NCI-H23; first compound 0.01 µM): 0.795
relative viability (NCI-H23; first compound 0.03162 µM): 1
relative viability (NCI-H23; first compound 0.1 µM): 0.904
relative viability (NCI-H23; first compound 0.3162 µM): 0.925
relative viability (NCI-H23; first compound 1 µM): 0.878
relative viability (NCI-H2347; first compound 0.01 µM): 0.149
relative viability (NCI-H2347; first compound 0.03162 µM): 0.315
relative viability (NCI-H2347; first compound 0.1 µM): 0.39
relative viability (NCI-H2347; first compound 0.3162 µM): 0.288
relative viability (NCI-H2347; first compound 1 µM): 0.31
relative viability (LC-2-ad; first compound 0.01 µM): 0.575
relative viability (LC-2-ad; first compound 0.03162 µM): 0.679
relative viability (LC-2-ad; first compound 0.1 µM): 0.73
relative viability (LC-2-ad; first compound 0.3162 µM): 0.664
relative viability (LC-2-ad; first compound 1 µM): 0.344
relative viability (201T; first compound 0.01 µM): 0.553
relative viability (201T; first compound 0.03162 µM): 0.568
relative viability (201T; first compound 0.1 µM): 0.677
relative viability (201T; first compound 0.3162 µM): 0.568
relative viability (201T; first compound 1 µM): 0.635
relative viability (SW 1573; first compound 0.01 µM): 0.355
relative viability (SW 1573; first compound 0.03162 µM): 0.537
relative viability (SW 1573; first compound 0.1 µM): 0.457
relative viability (SW 1573; first compound 0.3162 µM): 0.482
relative viability (SW 1573; first compound 1 µM): 0.326
relative viability (NCI-H1563; first compound 0.01 µM): 0.477
relative viability (NCI-H1563; first compound 0.03162 µM): 0.412
relative viability (NCI-H1563; first compound 0.1 µM): 0.474
relative viability (NCI-H1563; first compound 0.3162 µM): 0.478
relative viability (NCI-H1563; first compound 1 µM): 0.503
relative viability (LCLC-103H; first compound 0.01 µM): 0.424
relative viability (LCLC-103H; first compound 0.03162 µM): 0.623
relative viability (LCLC-103H; first compound 0.1 µM): 0.596
relative viability (LCLC-103H; first compound 0.3162 µM): 0.554
relative viability (LCLC-103H; first compound 1 µM): 0.331
relative viability (PC-3 [JPC-3]; first compound 0.01 µM): 1.05
relative viability (PC-3 [JPC-3]; first compound 0.03162 µM): 1.07
relative viability (PC-3 [JPC-3]; first compound 0.1 µM): 1.06
relative viability (PC-3 [JPC-3]; first compound 0.3162 µM): 1.08
relative viability (PC-3 [JPC-3]; first compound 1 µM): 0.909
relative viability (NCI-H2228; first compound 0.01 µM): 0.586
relative viability (NCI-H2228; first compound 0.03162 µM): 0.589
relative viability (NCI-H2228; first compound 0.1 µM): 0.793
relative viability (NCI-H2228; first compound 0.3162 µM): 0.536
relative viability (NCI-H2228; first compound 1 µM): 0.431
relative viability (NCI-H596; first compound 0.01 µM): 0.633
relative viability (NCI-H596; first compound 0.03162 µM): 0.593
relative viability (NCI-H596; first compound 0.1 µM): 0.585
relative viability (NCI-H596; first compound 0.3162 µM): 0.393
relative viability (NCI-H596; first compound 1 µM): 0.44
relative viability (LU99A; first compound 0.01 µM): 0.508
relative viability (LU99A; first compound 0.03162 µM): 0.611
relative viability (LU99A; first compound 0.1 µM): 0.712
relative viability (LU99A; first compound 0.3162 µM): 0.499
relative viability (LU99A; first compound 1 µM): 0.445
relative viability (COR-L23; first compound 0.01 µM): 0.527
relative viability (COR-L23; first compound 0.03162 µM): 0.549
relative viability (COR-L23; first compound 0.1 µM): 0.546
relative viability (COR-L23; first compound 0.3162 µM): 0.566
relative viability (COR-L23; first compound 1 µM): 0.608
relative viability (H3255; first compound 0.01 µM): 0.342
relative viability (H3255; first compound 0.03162 µM): 0.305
relative viability (H3255; first compound 0.1 µM): 0.478
relative viability (H3255; first compound 0.3162 µM): 0.594
relative viability (H3255; first compound 1 µM): 0.339
relative viability (NCI-H1650; first compound 0.01 µM): 0.319
relative viability (NCI-H1650; first compound 0.03162 µM): 0.286
relative viability (NCI-H1650; first compound 0.1 µM): 0.375
relative viability (NCI-H1650; first compound 0.3162 µM): 0.21
relative viability (NCI-H1650; first compound 1 µM): 0.191
relative viability (NCI-H460; first compound 0.01 µM): 0.538
relative viability (NCI-H460; first compound 0.03162 µM): 0.464
relative viability (NCI-H460; first compound 0.1 µM): 0.81
relative viability (NCI-H460; first compound 0.3162 µM): 0.709
relative viability (NCI-H460; first compound 1 µM): 0.395
relative viability (PC-14; first compound 0.01 µM): 0.263
relative viability (PC-14; first compound 0.03162 µM): 0.268
relative viability (PC-14; first compound 0.1 µM): 0.276
relative viability (PC-14; first compound 0.3162 µM): 0.264
relative viability (PC-14; first compound 1 µM): 0.162
relative viability (LCLC-97TM1; first compound 0.01 µM): 0.806
relative viability (LCLC-97TM1; first compound 0.03162 µM): 0.877
relative viability (LCLC-97TM1; first compound 0.1 µM): 0.93
relative viability (LCLC-97TM1; first compound 0.3162 µM): 0.934
relative viability (LCLC-97TM1; first compound 1 µM): 0.838
relative viability (A-427; first compound 0.01 µM): 0.749
relative viability (A-427; first compound 0.03162 µM): 0.647
relative viability (A-427; first compound 0.1 µM): 0.924
relative viability (A-427; first compound 0.3162 µM): 0.646
relative viability (A-427; first compound 1 µM): 0.565
relative viability (LK-2; first compound 0.01 µM): 0.29
relative viability (LK-2; first compound 0.03162 µM): 0.267
relative viability (LK-2; first compound 0.1 µM): 0.254
relative viability (LK-2; first compound 0.3162 µM): 0.188
relative viability (LK-2; first compound 1 µM): 0.212

— the supplement of paper PMC10307832
